According to patent US20180353512A1, “COMBINATION THERAPIES FOR TREATING B-CELL MALIGNANCIES” (GILEAD SCIENCES, INC., priority 2015, published 2018):
Where two headings read alike, the source gives them in different places.

Legend:
Format in all cases: cell-based
Pfeiffer cells = assay: CellTiter-Glo cell viability assay, four days (Example 1A); details: for EC50: Homo sapiens
Method: (§1) In vitro anti-proliferative activity of agents was assessed using CellTiter-Glo™ Assay (Promega), which quantifies cellular ATP level. Test compounds were dissolved in DMSO to prepare 10 mM stock solutions. […] For drug combination studies, a two or three fold horizontal serial dilution pattern was used for Compound B and combined with Idelalisib using a two, three, or four fold vertical serial dilution pattern. […] The final DMSO concentration in the test media was 0.2%. Each combination used replicates of four plates to generate sufficient data for evaluation of synergy scores. […] The assay growth medium for all lines was RPMI supplemented with 20% FBS and […] penicillin-streptomycin. Seeding density was optimized for growth rate over 96 hours for each cell line and was between 10,000-30,000 cells per well of 96 well plates. After four days incubation with agents at 37° C./5% CO2, the CellTiter-Glo™ assay was performed following the manufacturer's protocol. Relative luminescence units were quantified using a Biotek Synergy luminometer.
(§2) Data from a plate was excluded if either Z′<0.5 or the growth of the cell lines was less than one doubling in the four day assay period. Z′ was calculated using the formula: Z′=[1−((3(σstau+σDMSO))/(|μDMSO−μstau|)] where σstau and σDMSO are the standard deviation of the 100% inhibited staurosporine and 0% inhibited DMSO control wells, respectively. μDMSO and μstau are the mean of the […] control wells, respectively. The raw Cell Titer Glo signal was normalized according to the following formula: [(raw value)−(100% inhibited staurosporine control)]/[(DMSO control value)−(100% inhibited staurosporine control)].
(§3) EC50 was determined using GraphPad Prism or Dose Response software by fitting the data to a four parameters variable slope model. […] For combination studies, the EC50 at each test article concentration was determined from graphs of the EC50 of one compound at a fixed dose of second compound. The EC50 shift was calculated by taking the ratio of the EC50 of the single agent by the EC50 at the maximum dose of the second agent.
(§4) Synergy was analyzed using the MacSynergy II program, which calculates a theoretical additive value for the drug combination that is based on the values generated by each drug alone using the Bliss Independence mathematical model. The Bliss independence model assumes that each drug acts independently. The theoretical additive effect for each compound is calculated and then subtracted from the actual effect. Synergy is defined by greater than expected effects while antagonism is defined by less than expected effects. In this example, a synergy volume greater than 50 was considered significant. The EC50 values determined in drug combination studies represent a single experiment run in quadruplicate and therefore may differ slightly from the single agent EC50 values.

OCI-LY10 cells = assay: as above; details: for EC50: Homo sapiens; for growth of cell line: OCI-LY10, single agent
Method: as §1, §2, §3, §4

Ri-1 cells = assay: as above; details: for EC50: Ri-1, Ri-1; for growth of cell line: single agent
Method: as §1, §2, §3, §4

TMD-8 cells = assay: as above; details: for EC50: Homo sapiens; for growth of cell line: single agent
Method: as §1, §2, §3, §4

[1] = system: TMD8^S (DMSO passage matched, idelalisib-sensitive line); assay: CellTiter-Glo viability assay at 96 h; details: for cell growth: FIG. 23A
Method: Growth inhibition to Idelalisib or other inhibitors was assessed using CellTiter-Glo viability assay at 96 h. […] Cell lines were analyzed by whole exome sequencing, RNASeq, and phosphoproteomics. Protein expression was measured using Simple Western and SDS/PAGE and western blot. Caspase 3/7 was measured using Caspase-Glo 3/7 assay; apoptosis was measured with Annexin V assay and propidium iodide by flow cytometry.
Cell viability EC50 was determined using a sigmoidal dose-response (variable slope) curve generated from quadruplicate samples. Statistical significance was determined using the student's t-test for cell viability and two-tailed paired t-test for apoptosis experiments in Prism (GraphPad).
Idelalisib-resistant (TMD8^R) cell line and passage-matched Idelalisib-sensitive (TMD8^S) cell line were generated according to the procedure described in Example 5 above. To characterize the resistant cells, cell viability assays, RNASeq of multidrug resistance (MDR) family of ABC transporter genes (N=33), apoptosis assays, and phosphoprotein analysis were performed. Cell viability was measured using CellTiter-Glo, as described in Example 1A above. Western blot and protein level analysis were performed after treatment with 420 nM idelalisib, 320 nM Compound B and combination thereof, using Peggy Sue (ProteinSimple) automated Western Blot system. Protein concentration (pg/μL) was quantitated using recombinant protein standards. Normalized AUC were determined for each of the treatment groups, normalized to actin. Apoptosis was assessed by propidium iodide and Annexin V/FITC staining and measured by flow cytometry, as described in Example 1A above. Western Blot with anti-p-AKT (S473) antibody and Peggy Sue were used to determine the phosphorylation state of downstream signaling components.

[2] = Idelalisib 0 nM, read-out: EC50 of Compound B in Combination with Idelalisib
[3] = OCI-Ly10, OCI-LY10, bound stated for three ABC-DLBCL cell lines, read-out: EC50, growth inhibition, single agent
[4] = bound stated for three ABC-DLBCL cell lines, read-out: EC50, growth inhibition, single agent
[5] = TMD8, TMD-8, bound stated for three ABC-DLBCL cell lines, read-out: EC50, growth inhibition, single agent
[6] = Compound B 45 nM, read-out: EC50 of Idelalisib when Combined with Compound B

SMILES: CC#CC(=O)N1CC[C@@H](n2c(=O)n(-c3ccc(Oc4ccccc4)cc3)c3c(N)ncnc32)C1 [Compound B, 6-amino-9-[(3R)-1-(2-butynoyl)-3-pyrrolidinyl]-7-(4-phenoxyphenyl)-7,9-dihydro-8H-purin-8-one]
- EC50 (Pfeiffer cells; [2]): > 10 µM
- Compound B EC50 shift (fold) (Pfeiffer cells; No EC50 shift observed at up to 2.5 μM): None^c
- EC50 (OCI-LY10 cells; [3]): < 0.026 µM
- EC50 (OCI-LY10 cells; OCI-Ly10, OCI-LY-10, Idelalisib 0 nM, read-out: EC50 of Compound B in Combination with Idelalisib): 0.006 µM
- EC50 (OCI-LY10 cells; OCI-Ly10, OCI-LY-10, Idelalisib 156 nM, read-out: EC50 of Compound B in Combination with Idelalisib): 0.003 µM
- EC50 (OCI-LY10 cells; OCI-Ly10, OCI-LY-10, Idelalisib 625 nM, read-out: EC50 of Compound B in Combination with Idelalisib): 0.003 µM
- growth of cell line (OCI-LY10 cells): inhibited the growth
- Compound B EC50 shift (fold) (OCI-LY10 cells; OCI-LY-10, single agent EC50 / EC50 at maximum dose of Idelalisib): 2 fold
- EC50 (Ri-1 cells; [2]): 0.005 µM
- EC50 (Ri-1 cells; Idelalisib 156 nM, read-out: EC50 of Compound B in Combination with Idelalisib): 0.002 µM
- EC50 (Ri-1 cells; Idelalisib 625 nM, read-out: EC50 of Compound B in Combination with Idelalisib): 0.002 µM
- EC50 (Ri-1 cells; [4]): < 0.026 µM
- growth of cell line (Ri-1 cells; Ri-1): inhibited the growth
- Compound B EC50 shift (fold) (Ri-1 cells; Ri-1, single agent EC50 / EC50 at maximum dose of Idelalisib): 2.5 fold
- EC50 (TMD-8 cells; TMD8, TMD-8, Idelalisib 0 nM, read-out: EC50 of Compound B in Combination with Idelalisib): 0.011 µM
- EC50 (TMD-8 cells; TMD8, TMD-8, Idelalisib 156 nM, read-out: EC50 of Compound B in Combination with Idelalisib): 0.005 µM
- EC50 (TMD-8 cells; TMD8, TMD-8, Idelalisib 625 nM, read-out: EC50 of Compound B in Combination with Idelalisib): 0.004 µM
- EC50 (TMD-8 cells; [5]): < 0.026 µM
- growth of cell line (TMD-8 cells; TMD-8): inhibited the growth
- Compound B EC50 shift (fold) (TMD-8 cells; TMD-8, single agent EC50 / EC50 at maximum dose of Idelalisib): 2.75 fold
- cell growth [1]: inhibited cell growth
- EC50 ([1]; unit inferred, read-out: EC50, cell viability): 0.0012 µM

SMILES: CCC(Nc1ncnc2[nH]cnc12)c1nc2cccc(F)c2c(=O)n1-c1ccccc1 (centres unmarked) [Idelalisib, 2-(1-((9H-Purin-6-yl)amino)propyl)-5-fluoro-3-phenylquinazolin-4(3H)-one]
- EC50 (Pfeiffer cells; [6]): 0.174 µM
- Idelalisib EC50 shift (fold) (Pfeiffer cells; single agent EC50 / EC50 at maximum dose of Compound B): 1 fold
- EC50 (OCI-LY10 cells; OCI-Ly10, OCI-LY10, addition of Compound B at 6 nM, read-out: EC50 of idelalisib): 0.024 µM
- EC50 (OCI-LY10 cells; OCI-Ly10, OCI-LY10, addition of Compound B at 12 nM, read-out: EC50 of idelalisib): 0.019 µM
- EC50 (OCI-LY10 cells; OCI-Ly10, OCI-LY10, addition of Compound B at 25 nM, read-out: EC50 of idelalisib): 0.013 µM
- EC50 (OCI-LY10 cells; [3]): < 0.21 µM
- EC50 (OCI-LY10 cells; OCI-Ly10, OCI-LY10, without Compound B, read-out: EC50 of idelalisib): 0.122 µM
- EC50 (OCI-LY10 cells; OCI-Ly10, OCI-LY-10, Compound B 0 nM, read-out: EC50 of Idelalisib when Combined with Compound B): 0.44 µM
- EC50 (OCI-LY10 cells; OCI-Ly10, OCI-LY-10, Compound B 5 nM, read-out: EC50 of Idelalisib when Combined with Compound B): 0.038 µM
- EC50 (OCI-LY10 cells; OCI-Ly10, OCI-LY-10, Compound B 15 nM, read-out: EC50 of Idelalisib when Combined with Compound B): 0.022 µM
- EC50 (OCI-LY10 cells; OCI-Ly10, OCI-LY-10, Compound B 45 nM, read-out: EC50 of Idelalisib when Combined with Compound B): 0.005 µM
- growth of cell line (OCI-LY10 cells): inhibited the growth
- Idelalisib EC50 shift (fold) (OCI-LY10 cells; OCI-LY-10, single agent EC50 / EC50 at maximum dose of Compound B): 88 fold
- EC50 (Ri-1 cells; Compound B 0 nM, read-out: EC50 of Idelalisib when Combined with Compound B): 0.442 µM
- EC50 (Ri-1 cells; Compound B 5 nM, read-out: EC50 of Idelalisib when Combined with Compound B): 0.372 µM
- EC50 (Ri-1 cells; Compound B 15 nM, read-out: EC50 of Idelalisib when Combined with Compound B): 0.372 µM
- EC50 (Ri-1 cells; [6]): 0.372 µM
- EC50 (Ri-1 cells; [4]): < 0.21 µM
- growth of cell line (Ri-1 cells; Ri-1): inhibited the growth
- Idelalisib EC50 shift (fold) (Ri-1 cells; Ri-1, single agent EC50 / EC50 at maximum dose of Compound B): 1.2 fold
- EC50 (TMD-8 cells; TMD8, TMD8, addition of Compound B at 6 nM, read-out: EC50 of idelalisib): 0.108 µM
- EC50 (TMD-8 cells; TMD8, TMD8, addition of Compound B at 12 nM, read-out: EC50 of idelalisib): 0.034 µM
- EC50 (TMD-8 cells; TMD8, TMD8, addition of Compound B at 25 nM, read-out: EC50 of idelalisib): 0.024 µM
- EC50 (TMD-8 cells; TMD8, TMD8, without Compound B, read-out: EC50 of idelalisib): 0.254 µM
- EC50 (TMD-8 cells; TMD8, TMD-8, Compound B 0 nM, read-out: EC50 of Idelalisib when Combined with Compound B): 0.254 µM
- EC50 (TMD-8 cells; TMD8, TMD-8, Compound B 5 nM, read-out: EC50 of Idelalisib when Combined with Compound B): 0.13 µM
- EC50 (TMD-8 cells; TMD8, TMD-8, Compound B 15 nM, read-out: EC50 of Idelalisib when Combined with Compound B): 0.032 µM
- EC50 (TMD-8 cells; TMD8, TMD-8, Compound B 45 nM, read-out: EC50 of Idelalisib when Combined with Compound B): 0.024 µM
- EC50 (TMD-8 cells; [5]): < 0.21 µM
- growth of cell line (TMD-8 cells; TMD-8): inhibited the growth
- Idelalisib EC50 shift (fold) (TMD-8 cells; TMD-8, single agent EC50 / EC50 at maximum dose of Compound B): 10.6 fold
- EC50 ([1]; Example 7, read-out: EC50, cell viability): 0.22 µM
- cell growth [1]: inhibited cell growth
- inhibition at 1 µM ([1]; at 1 μM, read-out: Growth inhibition): 92%
